Source: US11739070B2, “C5A receptor modulators” (IDORSIA PHARMACEUTICALS LTD, priority 2018, dated 2023)

Target: T1, C5AR1 (Homo sapiens, UniProt P21730)
T1 construct: host or cells: CHO-K1
T1 sequence (P21730 1-350): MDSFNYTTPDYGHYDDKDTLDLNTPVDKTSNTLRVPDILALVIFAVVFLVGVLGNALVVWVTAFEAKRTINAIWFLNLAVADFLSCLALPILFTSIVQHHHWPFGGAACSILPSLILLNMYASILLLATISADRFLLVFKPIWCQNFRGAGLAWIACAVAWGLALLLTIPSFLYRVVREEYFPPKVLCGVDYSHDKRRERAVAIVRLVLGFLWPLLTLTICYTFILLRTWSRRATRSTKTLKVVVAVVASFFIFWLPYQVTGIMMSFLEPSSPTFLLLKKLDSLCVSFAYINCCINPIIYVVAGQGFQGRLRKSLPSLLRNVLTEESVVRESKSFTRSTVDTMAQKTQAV
Test: hC5a DISCO IC50 assay (PathHunter beta-arrestin, antagonist mode)
Assay type: cell-based
Conditions: CHO-K1 C5AR1 beta-arrestin cell line; antagonist vs 1-10 nM C5a agonist; geometric mean values; read-out: C5aR IC50
In short: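 Antagonist added first, then 1-10 nM C5a agonist; cells incubated 1.5 h at 37 °C. Beta-arrestin signal developed with PathHunter detection reagent, 45 min at RT. IC50 in nmol/l from serial antagonist dilutions, reported as geometric mean of several measurements.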

COc1cccc2c1n(Cc1ccccc1C(F)(F)F)c(=O)n2[C@@H]1CCN(c2c(F)cccc2CN2CCC(OC)C2)C1 (stereo partly drawn) [Example 138, 1-{(R)-1-[2-Fluoro-6-(3-methoxy-pyrrolidin-1-ylmethyl)-phenyl]-pyrrolidin-3-yl}-4-methoxy-3-(2-trifluoromethyl-benzyl)-1,3-dihydro-benzoimidazol-2-one]
IC50: 156 nM

COCCN(C)Cc1cccc(F)c1N1CC[C@@H](n2c(=O)n(Cc3ccccc3C(F)(F)F)c3c(OC)cccc32)C1 [Example 139, 1-[(R)-1-(2-Fluoro-6-{[(2-methoxy-ethyl)-methyl-amino]-methyl}-phenyl)-pyrrolidin-3-yl]-4-methoxy-3-(2-trifluoromethyl-benzyl)-1,3-dihydro-benzoimidazol-2-one]
IC50: 227 nM

CCN(CCO)Cc1cccc(F)c1N1CC[C@@H](n2c(=O)n(Cc3ccccc3C(F)(F)F)c3c(OC)cccc32)C1 [Example 140, 1-[(R)-1-(2-{[Ethyl-(2-hydroxy-ethyl)-amino]-methyl}-6-fluoro-phenyl)-pyrrolidin-3-yl]-4-methoxy-3-(2-trifluoromethyl-benzyl)-1,3-dihydro-benzoimidazol-2-one]
IC50: 1030 nM

COc1cccc2c1n(Cc1ccccc1C(F)(F)F)c(=O)n2[C@@H]1CCN(c2c(F)cccc2CN(CCO)CCO)C1 [Example 141, 1-[(R)-1-(2-{[Bis-(2-hydroxy-ethyl)-amino]-methyl}-6-fluoro-phenyl)-pyrrolidin-3-yl]-4-methoxy-3-(2-trifluoromethyl-benzyl)-1,3-dihydro-benzoimidazol-2-one]
IC50: 2130 nM

COCC(C)NCc1cccc(F)c1N1CC[C@@H](n2c(=O)n(Cc3ccccc3C(F)(F)F)c3c(OC)cccc32)C1 (stereo partly drawn) [Example 142, 1-((R)-1-{2-Fluoro-6-[(2-methoxy-1-methyl-ethylamino)-methyl]-phenyl}-pyrrolidin-3-yl)-4-methoxy-3-(2-trifluoromethyl-benzyl)-1,3-dihydro-benzoimidazol-2-one]
IC50: 108 nM

COc1cccc2c1n(Cc1ccccc1C(F)(F)F)c(=O)n2[C@@H]1CCN(c2c(F)cccc2CN2CC(OC)C2)C1 [Example 143, 1-{(R)-1-[2-Fluoro-6-(3-methoxy-azetidin-1-ylmethyl)-phenyl]-pyrrolidin-3-yl}-4-methoxy-3-(2-trifluoromethyl-benzyl)-1,3-dihydro-benzoimidazol-2-one]
IC50: 108 nM

COc1cccc2c1n(Cc1ccccc1C(F)(F)F)c(=O)n2C1CCN(C(=O)OC(C)(C)C)C(C)C1 (centres unmarked) [Example 144, 4-[4-Methoxy-2-oxo-3-(2-trifluoromethyl-benzyl)-2,3-dihydro-benzoimidazol-1-yl]-2-methyl-piperidine-1-carboxylic acid tert-butyl ester]
IC50: 312 nM

COc1cccc2c1n(Cc1ccccc1C(F)(F)F)c(=O)n2C1CCN(c2c(F)cccc2C=O)C(C)C1 (centres unmarked) [Example 145, 3-Fluoro-2-{4-[4-methoxy-2-oxo-3-(2-trifluoromethyl-benzyl)-2,3-dihydro-benzoimidazol-1-yl]-2-methyl-piperidin-1-yl}-benzaldehyde]
IC50: 16 nM

COc1cccc2c1n(Cc1ccccc1C(F)(F)F)c(=O)n2C1CCN(C(=O)OC(C)(C)C)CC1C (centres unmarked) [Example 146, 4-[4-Methoxy-2-oxo-3-(2-trifluoromethyl-benzyl)-2,3-dihydro-benzoimidazol-1-yl]-3-methyl-piperidine-1-carboxylic acid tert-butyl ester]
IC50: 201 nM

COc1cccc2c1n(Cc1ccccc1C(F)(F)F)c(=O)n2C1CCN(c2c(C)cccc2F)CC1C (centres unmarked) [Example 147, 1-[1-(2-Fluoro-6-methyl-phenyl)-3-methyl-piperidin-4-yl]-4-methoxy-3-(2-trifluoromethyl-benzyl)-1,3-dihydro-benzoimidazol-2-one]
IC50: 20 nM

COc1cccc2c1n(Cc1ccccc1C(F)(F)F)c(=O)n2[C@@H]1CCN(c2c(F)cccc2C(C)OC)C1 (stereo partly drawn) [Example 148, 1-{(R)-1-[2-Fluoro-6-(1-methoxy-ethyl)-phenyl]-pyrrolidin-3-yl}-4-methoxy-3-(2-trifluoromethyl-benzyl)-1,3-dihydro-benzoimidazol-2-one]
IC50: 28 nM

Cc1cccc(F)c1N1CC[C@@H](n2c(=O)n(Cc3ccccc3C(F)(F)F)c3c(OC4COC4)cccc32)C1 [Example 149, 1-[(R)-1-(2-Fluoro-6-methyl-phenyl)-pyrrolidin-3-yl]-4-(oxetan-3-yloxy)-3-(2-trifluoromethyl-benzyl)-1,3-dihydro-benzoimidazol-2-one]
IC50: 14 nM

Cc1cccc(F)c1N1CC[C@@H](n2c(=O)n(Cc3ccccc3C(F)(F)F)c3c(OCCO)cccc32)C1 [Example 150, 1-[(R)-1-(2-Fluoro-6-methyl-phenyl)-pyrrolidin-3-yl]-4-(2-hydroxy-ethoxy)-3-(2-trifluoromethyl-benzyl)-1,3-dihydro-benzoimidazol-2-one]
IC50: 11 nM

Cc1cccc(F)c1N1CC[C@@H](n2c(=O)n(Cc3ccccc3C(F)(F)F)c3c(OCC4COC(C)(C)O4)cccc32)C1 (stereo partly drawn) [Example 151, 4-(2,2-Dimethyl-[1,3]dioxolan-4-ylmethoxy)-1-[(R)-1-(2-fluoro-6-methyl-phenyl)-pyrrolidin-3-yl]-3-(2-trifluoromethyl-benzyl)-1,3-dihydro-benzoimidazol-2-one]
IC50: 31 nM

Cc1cccc(F)c1N1CC[C@@H](n2c(=O)n(Cc3ccccc3C(F)(F)F)c3c(OCC(O)CO)cccc32)C1 (stereo partly drawn) [Example 152, 4-(2,3-Dihydroxy-propoxy)-1-[(R)-1-(2-fluoro-6-methyl-phenyl)-pyrrolidin-3-yl]-3-(2-trifluoromethyl-benzyl)-1,3-dihydro-benzoimidazol-2-one]
IC50: 38 nM

COc1cccc2c1n(Cc1cncnc1C(F)(F)F)c(=O)n2[C@@H]1CCN(c2c(F)cccc2C#N)C1 [Example 153, 3-Fluoro-2-{(R)-3-[4-methoxy-2-oxo-3-(4-trifluoromethyl-pyrimidin-5-ylmethyl)-2,3-dihydro-benzoimidazol-1-yl]-pyrrolidin-1-yl}-benzonitrile]
IC50: 215 nM

COc1cccc2c1n(Cc1ccccc1C(F)(F)F)c(=O)n2[C@@H]1CCN(c2c(F)cccc2[N+](=O)[O-])C1 [Example 154, 1-[(R)-1-(2-Fluoro-6-nitro-phenyl)-pyrrolidin-3-yl]-4-methoxy-3-(2-trifluoromethyl-benzyl)-1,3-dihydro-benzoimidazol-2-one]
IC50: 23 nM

COc1cccc2c1n(Cc1ccccc1C(F)(F)F)c(=O)n2[C@@H]1CCN(c2c(N)cccc2F)C1 [Example 155, 1-[(R)-1-(2-Amino-6-fluoro-phenyl)-pyrrolidin-3-yl]-4-methoxy-3-(2-trifluoromethyl-benzyl)-1,3-dihydro-benzoimidazol-2-one]
IC50: 15 nM

COc1cccc2c1n(Cc1ccccc1C(F)(F)F)c(=O)n2[C@@H]1CCN(c2c(F)cccc2Br)C1 [Example 156, 1-[(R)-1-(2-Bromo-6-fluoro-phenyl)-pyrrolidin-3-yl]-4-methoxy-3-(2-trifluoromethyl-benzyl)-1,3-dihydro-benzoimidazol-2-one]
IC50: 21 nM

COc1cccc2c1n(Cc1ccccc1C(F)(F)F)c(=O)n2[C@@H]1CCN(c2nncc(Cl)c2Cl)C1 [Example 157, 1-[(R)-1-(4,5-Dichloro-pyridazin-3-yl)-pyrrolidin-3-yl]-4-methoxy-3-(2-trifluoromethyl-benzyl)-1,3-dihydro-benzoimidazol-2-one]
IC50: 630 nM

COc1cccc2c1n(Cc1ccccc1C(F)(F)F)c(=O)n2[C@@H]1CCN(c2c(Cl)cnnc2Cl)C1 [Example 158, 1-[(R)-1-(3,5-Dichloro-pyridazin-4-yl)-pyrrolidin-3-yl]-4-methoxy-3-(2-trifluoromethyl-benzyl)-1,3-dihydro-benzoimidazol-2-one]
IC50: 683 nM

COc1cccc2c1n(Cc1ccccc1C(F)(F)F)c(=O)n2[C@@H]1CCN(c2c(F)cccc2C#CCN2CCOCC2)C1 [Example 159, 1-{(R)-1-[2-Fluoro-6-(3-morpholin-4-yl-prop-1-ynyl)-phenyl]-pyrrolidin-3-yl}-4-methoxy-3-(2-trifluoromethyl-benzyl)-1,3-dihydro-benzoimidazol-2-one]
IC50: 73 nM

COc1cccc2c1n(Cc1ccccc1C(F)(F)F)c(=O)n2[C@@H]1CCN(c2ccccc2F)C1 [Example 160, 1-[(R)-1-(2-Fluoro-phenyl)-pyrrolidin-3-yl]-4-methoxy-3-(2-trifluoromethyl-benzyl)-1,3-dihydro-benzoimidazol-2-one]
IC50: 35 nM

COc1cccc2c1n(Cc1ccccc1C(F)(F)F)c(=O)n2[C@@H]1CCN(c2c(F)cccc2N2CCOCC2)C1 [Example 161, 1-[(R)-1-(2-Fluoro-6-morpholin-4-yl-phenyl)-pyrrolidin-3-yl]-4-methoxy-3-(2-trifluoromethyl-benzyl)-1,3-dihydro-benzoimidazol-2-one]
IC50: 69 nM

COc1cccc2c1n(Cc1ccccc1C(F)(F)F)c(=O)n2[C@@H]1CCN(c2c(F)cccc2CCCN2CCOCC2)C1 [Example 162, 1-{(R)-1-[2-Fluoro-6-(3-morpholin-4-yl-propyl)-phenyl]-pyrrolidin-3-yl}-4-methoxy-3-(2-trifluoromethyl-benzyl)-1,3-dihydro-benzoimidazol-2-one]
IC50: 135 nM

COc1cccc2c1n(Cc1ccccc1C(F)(F)F)c(=O)n2[C@@H]1CCN(c2c(F)cccc2C(C)N2CC(OC)C2)C1 (stereo partly drawn) [Example 163, 1-((R)-1-{2-Fluoro-6-[1-(3-methoxy-azetidin-1-yl)-ethyl]-phenyl}-pyrrolidin-3-yl)-4-methoxy-3-(2-trifluoromethyl-benzyl)-1,3-dihydro-benzoimidazol-2-one]
IC50: 591 nM
